Test results published in patent publication US8952024B2, “Herbicidal pyrimidone derivatives” (E I du Pont de Nemours and Company, priority 2009, dated 2015).

Experiments:
Assay type in all cases: in vivo
[1] = tested on: umbrella sedge (Cyperus difformis); test: Test B flooded paddy test; conditions: for Plant response rating, Flood, Sedge, Umbrella: 250 g ai/ha, flooded paddy test, visual rating on 0 to 100 scale (0 no effect, 100 complete control) after 13 to 15 days; for Plant response rating, Sedge, Umbrella: Flood (flooded paddy test), 13 to 15 days
Outline: (§1)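 Greenhouse-held for 13 to 15 days, treated pots were compared visually with controls and scored 0–100 (0, no effect). Treatment had been made into paddy water kept at 3 cm above the soil, with plants at the 2-leaf stage.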

[2] = tested on: barnyardgrass (Echinochloa crus-galli); test: Test B flooded paddy test; conditions: for Plant response rating, Flood, Barnyardgrass: 250 g ai/ha, flooded paddy test, visual rating on 0 to 100 scale (0 no effect, 100 complete control) after 13 to 15 days; for Plant response rating, Barnyardgrass: Flood (flooded paddy test), 13 to 15 days
Outline: as §1

rice (Oryza sativa) = test: Test B flooded paddy test; conditions: for Plant response rating, Flood, Rice: 250 g ai/ha, flooded paddy test, visual rating on 0 to 100 scale (0 no effect, 100 complete control) after 13 to 15 days; for Plant response rating, Rice: Flood (flooded paddy test), 13 to 15 days
Outline: as §1

[3] = tested on: ducksalad (Heteranthera limosa); test: Test B flooded paddy test; conditions: for Plant response rating, Flood, Ducksalad: 250 g ai/ha, flooded paddy test, visual rating on 0 to 100 scale (0 no effect, 100 complete control) after 13 to 15 days; for Plant response rating, Ducksalad: Flood (flooded paddy test), 13 to 15 days
Outline: as §1

[4] = tested on: bermudagrass (Cynodon dactylon); test: Test B pre-/postemergence plant response
Outline: (§2)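 Seeds sown in loam–sand blend were treated preemergence, and plants at 2–18 cm (1- to 4-leaf stage) in peat-based medium were treated postemergence; compounds were formulated in non-phytotoxic solvent with surfactant. After 13–15 days in greenhouse, response was visually rated against controls, 0 (no effect) to 100 (complete control).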

corn (Zea mays) = test: Test B pre-/postemergence plant response
Outline: as §2

[5] = tested on: Italian ryegrass (Lolium multiflorum); test: Test B pre-/postemergence plant response
Outline: as §2

[6] = tested on: blackgrass (Alopecurus myosuroides); test: Test B pre-/postemergence plant response
Outline: as §2

[7] = tested on: cocklebur (Xanthium strumarium); test: Test B pre-/postemergence plant response
Outline: as §2

[8] = tested on: Surinam grass (Brachiaria decumbens); test: Test B pre-/postemergence plant response
Outline: as §2

[9] = tested on: ragweed (common ragweed, Ambrosia elatior); test: Test B pre-/postemergence plant response
Outline: as §2

[10] = tested on: morningglory (Ipomoea coccinea); test: Test B pre-/postemergence plant response
Outline: as §2

soybean (Glycine max) = test: Test B pre-/postemergence plant response
Outline: as §2

[11] = 31 g ai/ha, scale of 0 to 100 where 0 is no effect and 100 is complete control
[12] = 62 g ai/ha, scale of 0 to 100 where 0 is no effect and 100 is complete control
[13] = 125 g ai/ha, scale 0 to 100, 0 is no effect, 100 is complete control
[14] = 31 g ai/ha, postemergence, scale 0 to 100, 0 is no effect, 100 is complete control
[15] = 250 g ai/ha, Preemergence, 0 to 100 scale
[16] = Postemergence, 62 g ai/ha, scale 0 (no effect) to 100 (complete control), 13 to 15 days
[17] = Postemergence, 125 g ai/ha, visual rating after 13 to 15 days, scale 0 (no effect) to 100 (complete control)
[18] = Postemergence, 250 g ai/ha, scale 0 to 100 (0 no effect, 100 complete control)
[19] = Preemergence, 62 g ai/ha, scale 0 to 100 (0 no effect, 100 complete control)
[20] = Preemergence, 125 g ai/ha, scale 0 to 100, 0 no effect, 100 complete control
[21] = Preemergence, 31 g ai/ha, scale 0 to 100 (0 no effect, 100 complete control)

Cc1cc(-n2c(-c3ccccc3)ncc(C(=O)C3=C(O)CCCC3=O)c2=O)ccc1F [Compound 53]
Plant response rating, Flood, Sedge, Umbrella [1]: 90
Plant response rating, Sedge, Umbrella [1, 11]: 40
Plant response rating, Sedge, Umbrella [1, 12]: 85
Plant response rating, Sedge, Umbrella [1, 13]: 90
Plant response rating, Flood, Barnyardgrass [2]: 75
Plant response rating, Barnyardgrass [2, 11]: 20
Plant response rating, Barnyardgrass [2, 12]: 40
Plant response rating, Barnyardgrass [2, 13]: 55
Plant response rating, Flood, Rice (rice (Oryza sativa)): 85
Plant response rating, Rice (rice (Oryza sativa); [11]): 15
Plant response rating, Rice (rice (Oryza sativa); [12]): 20
Plant response rating, Rice (rice (Oryza sativa); [13]): 60
Plant response rating, Flood, Ducksalad [3]: 75
Plant response rating, Ducksalad [3, 11]: 40
Plant response rating, Ducksalad [3, 12]: 65
Plant response rating, Ducksalad [3, 13]: 75
Plant response rating, Bermudagrass [4, 14]: 90
Plant response rating, Bermudagrass [4, 15]: 100
Plant response rating, Bermudagrass [4, 16]: 95
Plant response rating, Bermudagrass [4, 17]: 98
Plant response rating, Bermudagrass [4, 18]: 98
Plant response rating, Bermudagrass [4, 19]: 100
Plant response rating, Bermudagrass [4, 20]: 100
Plant response rating, Corn (corn (Zea mays); [14]): 55
Plant response rating, Corn (corn (Zea mays); [15]): 20
Plant response rating, Corn (corn (Zea mays); [16]): 80
Plant response rating, Corn (corn (Zea mays); [17]): 80
Plant response rating, Corn (corn (Zea mays); [18]): 85
Plant response rating, Corn (corn (Zea mays); [21]): 0
Plant response rating, Corn (corn (Zea mays); [19]): 0
Plant response rating, Corn (corn (Zea mays); [20]): 0
Plant response rating, Ryegrass, Italian [5, 14]: 0
Plant response rating, Ryegrass, Italian [5, 16]: 5
Plant response rating, Ryegrass, Italian [5, 17]: 40
Plant response rating, Ryegrass, Italian [5, 18]: 45
Plant response rating, Ryegrass, Italian [5, 21]: 0
Plant response rating, Ryegrass, Italian [5, 19]: 0
Plant response rating, Ryegrass, Italian [5, 20]: 0
Plant response rating, Blackgrass [6, 14]: 20
Plant response rating, Blackgrass [6, 15]: 60
Plant response rating, Blackgrass [6, 16]: 30
Plant response rating, Blackgrass [6, 17]: 40
Plant response rating, Blackgrass [6, 18]: 50
Plant response rating, Blackgrass [6, 21]: 0
Plant response rating, Blackgrass [6, 19]: 5
Plant response rating, Blackgrass [6, 20]: 5
Plant response rating, Cocklebur [7, 14]: 80
Plant response rating, Cocklebur [7, 15]: 70
Plant response rating, Cocklebur [7, 16]: 85
Plant response rating, Cocklebur [7, 17]: 85
Plant response rating, Cocklebur [7, 18]: 90
Plant response rating, Cocklebur [7, 21]: 10
Plant response rating, Cocklebur [7, 19]: 20
Plant response rating, Cocklebur [7, 20]: 65
Plant response rating, Surinam Grass [8, 14]: 85
Plant response rating, Surinam Grass [8, 16]: 95
Plant response rating, Surinam Grass [8, 17]: 98
Plant response rating, Surinam Grass [8, 18]: 98
Plant response rating, Surinam Grass [8, 21]: 75
Plant response rating, Surinam Grass [8, 19]: 85
Plant response rating, Surinam Grass [8, 20]: 100
Plant response rating, Ragweed [9, 14]: 80
Plant response rating, Ragweed [9, 16]: 85
Plant response rating, Ragweed [9, 17]: 95
Plant response rating, Ragweed [9, 18]: 98
Plant response rating, Ragweed [9, 21]: 65
Plant response rating, Ragweed [9, 19]: 75
Plant response rating, Ragweed [9, 20]: 85
Plant response rating, Morningglory [10, 14]: 55
Plant response rating, Morningglory [10, 16]: 75
Plant response rating, Morningglory [10, 17]: 80
Plant response rating, Morningglory [10, 18]: 98
Plant response rating, Morningglory [10, 21]: 0
Plant response rating, Morningglory [10, 19]: 20
Plant response rating, Morningglory [10, 20]: 25
Plant response rating, Soybean (soybean (Glycine max); [14]): 90
Plant response rating, Soybean (soybean (Glycine max); [16]): 95
Plant response rating, Soybean (soybean (Glycine max); [17]): 95
Plant response rating, Soybean (soybean (Glycine max); [18]): 95
Plant response rating, Soybean (soybean (Glycine max); [21]): 0
Plant response rating, Soybean (soybean (Glycine max); [19]): 70
Plant response rating, Soybean (soybean (Glycine max); [20]): 80

Cn1c(-c2ccccc2)ncc(C(=O)C2=C(O)CCCC2=O)c1=O [Compound 55]
Plant response rating, Flood, Sedge, Umbrella [1]: 60
Plant response rating, Sedge, Umbrella [1, 11]: 0
Plant response rating, Sedge, Umbrella [1, 12]: 30
Plant response rating, Sedge, Umbrella [1, 13]: 40
Plant response rating, Flood, Barnyardgrass [2]: 20
Plant response rating, Barnyardgrass [2, 11]: 0
Plant response rating, Barnyardgrass [2, 12]: 20
Plant response rating, Barnyardgrass [2, 13]: 20
Plant response rating, Flood, Rice (rice (Oryza sativa)): 25
Plant response rating, Rice (rice (Oryza sativa); [11]): 0
Plant response rating, Rice (rice (Oryza sativa); [12]): 10
Plant response rating, Rice (rice (Oryza sativa); [13]): 15
Plant response rating, Flood, Ducksalad [3]: 50
Plant response rating, Ducksalad [3, 11]: 0
Plant response rating, Ducksalad [3, 12]: 0
Plant response rating, Ducksalad [3, 13]: 0
Plant response rating, Bermudagrass [4, 14]: 80
Plant response rating, Bermudagrass [4, 15]: 100
Plant response rating, Bermudagrass [4, 16]: 80
Plant response rating, Bermudagrass [4, 17]: 85
Plant response rating, Bermudagrass [4, 18]: 90
Plant response rating, Bermudagrass [4, 21]: 95
Plant response rating, Bermudagrass [4, 19]: 98
Plant response rating, Bermudagrass [4, 20]: 100
Plant response rating, Corn (corn (Zea mays); [14]): 0
Plant response rating, Corn (corn (Zea mays); [15]): 0
Plant response rating, Corn (corn (Zea mays); [16]): 5
Plant response rating, Corn (corn (Zea mays); [17]): 5
Plant response rating, Corn (corn (Zea mays); [18]): 10
Plant response rating, Corn (corn (Zea mays); [21]): 0
Plant response rating, Corn (corn (Zea mays); [19]): 0
Plant response rating, Corn (corn (Zea mays); [20]): 0
Plant response rating, Ryegrass, Italian [5, 14]: 0
Plant response rating, Ryegrass, Italian [5, 16]: 0
Plant response rating, Ryegrass, Italian [5, 17]: 0
Plant response rating, Ryegrass, Italian [5, 18]: 0
Plant response rating, Ryegrass, Italian [5, 21]: 0
Plant response rating, Ryegrass, Italian [5, 19]: 0
Plant response rating, Ryegrass, Italian [5, 20]: 0
Plant response rating, Blackgrass [6, 14]: 0
Plant response rating, Blackgrass [6, 15]: 30
Plant response rating, Blackgrass [6, 16]: 0
Plant response rating, Blackgrass [6, 17]: 5
Plant response rating, Blackgrass [6, 18]: 10
Plant response rating, Blackgrass [6, 21]: 0
Plant response rating, Blackgrass [6, 19]: 0
Plant response rating, Blackgrass [6, 20]: 0
Plant response rating, Cocklebur [7, 14]: 45
Plant response rating, Cocklebur [7, 15]: 15
Plant response rating, Cocklebur [7, 16]: 60
Plant response rating, Cocklebur [7, 17]: 65
Plant response rating, Cocklebur [7, 18]: 75
Plant response rating, Cocklebur [7, 21]: 0
Plant response rating, Cocklebur [7, 19]: 10
Plant response rating, Cocklebur [7, 20]: 10
Plant response rating, Surinam Grass [8, 14]: 10
Plant response rating, Surinam Grass [8, 16]: 15
Plant response rating, Surinam Grass [8, 17]: 45
Plant response rating, Surinam Grass [8, 18]: 60
Plant response rating, Surinam Grass [8, 21]: 0
Plant response rating, Surinam Grass [8, 19]: 0
Plant response rating, Surinam Grass [8, 20]: 0
Plant response rating, Ragweed [9, 14]: 70
Plant response rating, Ragweed [9, 16]: 80
Plant response rating, Ragweed [9, 17]: 95
Plant response rating, Ragweed [9, 18]: 98
Plant response rating, Ragweed [9, 21]: 55
Plant response rating, Ragweed [9, 19]: 65
Plant response rating, Ragweed [9, 20]: 85
Plant response rating, Morningglory [10, 14]: 55
Plant response rating, Morningglory [10, 16]: 60
Plant response rating, Morningglory [10, 17]: 75
Plant response rating, Morningglory [10, 18]: 85
Plant response rating, Morningglory [10, 21]: 0
Plant response rating, Morningglory [10, 19]: 0
Plant response rating, Morningglory [10, 20]: 45
Plant response rating, Soybean (soybean (Glycine max); [14]): 25
Plant response rating, Soybean (soybean (Glycine max); [16]): 60
Plant response rating, Soybean (soybean (Glycine max); [17]): 60
Plant response rating, Soybean (soybean (Glycine max); [18]): 75
Plant response rating, Soybean (soybean (Glycine max); [21]): 0
Plant response rating, Soybean (soybean (Glycine max); [19]): 0
Plant response rating, Soybean (soybean (Glycine max); [20]): 15
